Experimental data as given in patent publication US10660789B2, “1,4-dihydropyridine derivatives with HSP modulating activity” (Richter Gedeon NYRT., priority 2011, dated 2020).
Counter-ions that a name gives are not always drawn.

Assays:
[1] = tested on: B6SJL-Tg(SOD1*G93A)1Gur/J mice; test: Lifespan of G93A ALS mouse strain; assay type: in vivo
Source text: Amyotrophic lateral sclerosis (ALS) is a fatal neurodegenerative disease, caused by the death of motor neurons mainly in the spinal cord. The main form of familiar (genetic or inherited) ALS is caused by the mutation of superoxide dismutase 1 (SOD1) gene, which results in […] amyloid-like aggregations and progressive neuronal degenerations. […] The “golden standard” of preclinical ALS drug tests is the use of a specific transgenic mouse strain, which harbors high-copy number of human mutated SOD1 gene, having a mutation of G93A.
The effect of Ex. 23 was investigated on lifespan of G93A ALS mouse strain. A total of 33 transgenic female mice (B6SJL-Tg(SOD1*G93A)1Gur/J) were bred from 4 breeding pairs. The breeding pairs were purchased from the Jackson Laboratory (jax.org). The mice were individually housed in an IVC rack. Standard food pellets and water was available ad libidum. Body weight was monitored daily. The compound Ex. 23 was freshly dissolved in saline every day, and was administered daily intraperitoneally at the onset of symptoms in 10 mg/bwkg. Symptom onset was determined according to ALS-TDI neurological score. Mice treated with Ex. 23 lived longer (FIG. 10) than untreated mice (mean survival 143±3 days; n=8 and 132±3 days; n=25, respectively).

[2] = tested on: Hsp70 promoter; test: Hsp70 promoter-YFP reporter in SHSY5Y cells, flow cytometry; assay type: cell-based, human
Protocol: (§1) The Hsp co-inducing effect of the compounds on stress response was tested on B16 mouse melanoma and SHSY5Y human neuroblastoma cell lines stably transfected with Hsp promoter probing plasmids. This kind of promoter probing, using the promoter region of a given gene conjugated with fluorescent protein is used as a best and fastest test system for finding drugs which modulate the activity of the gene followed by the given promoter (Wyshocka et al., Mol. Cel. Biochem. 215:153-156, 2000).
(§2) Reporter plasmids, containing the Hsp70 and/or Hsp25 promoter conjugated to either YFP or GFP (yellow or green fluorescent protein), were stably transfected into the cells and the expression of YFP or GFP was followed by flow cytometry. Cells were either kept at 37° C. or exposed to heat shock at 42° C. for 1 hour followed by a 16 hour recovery period at 37° C. in the presence or absence of different concentrations of the test compound. After recovery the expression of YFP or GFP which is in straight correlation with the promoter activity of Hsp70 or Hsp27 genes was followed by measuring the fluorescence intensity of the cells by flow cytometry. Fluorescence intensity is in straight correlation with the amount of fluorescent protein (GFP or YFP) produced under the control of hsp promoter. The mean fluorescence intensity of YFP or GFP produced is shown as “Hsp promoter activity”.
The fluorescence intensity of YFP produced as a result of Hsp70 promoter activity was measured by flow cytometry.
(§3) Cells were homogenously distributed on 6-well plates in 1×10^5 cells/well density. B16-pHsp25-GFP and B16-pHsp70-YFP melanoma cells were grown in RPMI-1640 medium supplemented with 10% Fetal bovine serum (FBS), penicillin (200 units/ml), streptomycin (200 μg/ml) and 2 mM L-Glutamine. […] The changes in cells' fluorescence were detected using BD FACSCalibur flow cytometer.

[3] = tested on: Hsp25 promoter; test: Hsp25 promoter-GFP reporter in SHSY5Y cells, flow cytometry; assay type: cell-based, human; settings: FIG. 2
Protocol: as §1, §2
The fluorescence intensity of GFP and YFP […].
Selectivity of the Hsp25 co-inducing activity of compound of Ex. 11 is shown on FIG. 3. […] The fluorescence intensity of GFP produced as a result of Hsp25 promoter activity was measured by flow cytometry.
as §3

SMILES: COC(=O)C1=C(CCN(C)C)N(C)C(CCN(C)C)=C(C(=O)OC)C1c1ccc(C(F)(F)F)cc1 [Example 23, Dimethyl 4-(4-trifuoromethylphenyl)-2,6-bis-(2-dimethylaminoethyl)-1-methyl-1,4-dihydropyridine-3,5-dicarboxylate dihydrochloride]
- mean survival ([1]; 10 mg/bwkg daily i.p. from onset of symptoms, n=8, FIG. 10): 143 ± 3 days
- In vivo efficacy ([1]; model in which efficacy was shown): ALS
- induction of Hsp70 gene activity ([2]; 20 μM, SHSY5Y cells at 42° C., FIG. 1): approximately 20 times
- activity of the promoter of the hsp70 gene at 37° C. ([2]; SHSY5Y cells, 37° C., no heat stress): does not affect the activity of the promoter of the hsp70 gene at 37 °C
- increase in HSP70 expression ([2]; SHSY5Y cells, relative to cells treated at 42° C. without the compound, FIG. 2): 23 fold
- effect on the expression of Hsp25 [3]: no effect on the expression of Hsp25
